Marks after values point to notes of the source that are not given here.
Key:
[1] = tested on: CCRF-CEM (CCL-119) (T-lymphoblastic leukemia); test: MTT cytotoxicity on CCRF-CEM cells; assay type: cell-based; conditions: Homo sapiens, 24 hours
Protocol: (§1) The cytotoxic properties of the compounds were determined in vitro using the MTT method in 96-well plates (Costar, USA). […] Rat liver hepatocytes were obtained according to the method, human blood mononuclear cells - according to [23]. Fibroblast cells were obtained according to the method of [24] with some modifications. Cell cultures were subcultured into 96-well plates according to the method of [21] by adding 100 μl of nutrient medium. The CCRF-CEM suspension culture was poured into a tube, centrifuged at 800 rpm for 10 minutes, and the supernatant was discarded. […] Data obtained in 3 independent experiments were expressed as the mean value for each concentration ± standard error of the mean, relative to the control values (cells without test compounds). The cytotoxic effect of each of the studied compounds was compared with the effect of the cytostatic Cisplatin-Naprod (India), containing cisplatin as an active component. Table 1: IC50 μM value for test compounds

fibroblasts = test: MTT cytotoxicity on fibroblasts; assay type: cell-based; conditions: Fibroblast, 24 hours
Protocol: as §1

Rat liver hepatocytes = test: MTT cytotoxicity on hepatocytes; assay type: cell-based; conditions: Rattus norvegicus, Hepatocyte, 24 hours
Protocol: as §1

[2] = Acute toxicity study (LD50); conditions: mouse, in vivo, ip
Protocol: (§2) We studied the acute toxicity of compound F1 in vivo. The experiments were carried out on outbred white mice of both sexes weighing 18-20 g (24 pcs.). The animals were divided into groups of 12 mice each. The compound was dissolved in DMSO and then adjusted to the desired concentration with 0.9% NaCl solution and administered intraperitoneally and subcutaneously in a dose range from 5.0 to 200.0 mg/kg. […] The maximum relative error of the applied dose was no more than 5%.
as §2, with “F2” for “F1”, “brought” for “adjusted”, “subcutaneously to animals” for “subcutaneously”, “administered” for “applied”

outbred white mice = test: Acute toxicity study (LD50)
Protocol: as §2
as §2, with “F2” for “F1”, “brought” for “adjusted”, “subcutaneously to animals” for “subcutaneously”, “administered” for “applied”

[3] = tested on: blood of patients with leukemia (combined group); test: Hemogram of blood of patients with leukemia (combined group) after exposure; assay type: cell-based
Text: (§3) The effect of compounds F1 and F2 was studied on biological material (blood) of patients with hematological malignancies (leukemia), as well as for individual nosologies, in particular, patients with leukemia (combined group) (n=224), T-ALL (n=84), B-ALL (n=100), ALL (n=100), AML (n= 98), AML (n=94) and AML (n= 98) were studied. A total of 798 blood samples from patients with leukemia were examined.
(§4) The drugs Cytosar (Alexan) (Ebewe Pharma, Austria) and doxorubicin (Naprod, Mumbai, India) recommended by WHO for the treatment of the above oncohematological diseases were used as comparison drugs.
(§5) 5 ml of venous blood from sick and conditionally healthy individuals were collected into Vacutainer tubes with the addition of EDTA (Himedia, India).
(§6) The resulting blood was divided into aliquots of 1 ml and 10 µl (10 µg/ml) of the studied drugs (cytosar, doxorubicin, F1 and F2) were added to each tube.

[4] = tested on: blood of patients with T-ALL; test: Hemogram of blood of patients with T-ALL after exposure; assay type: cell-based
Text: as §3, §4, §5, §6

[5] = tested on: blood of patients with B-ALL; test: Hemogram of blood of patients with B-ALL after exposure; assay type: cell-based
Protocol: A total of 798 blood samples from patients with leukemia were examined.
as §4, §5, §6

[6] = tested on: blood of patients with ALL; test: Hemogram of blood of patients with ALL after exposure; assay type: cell-based
Protocol: as §3, §5, §6

[7] = tested on: blood of patients with AML; test: Hemogram of blood of patients with AML after exposure (Example 12, Table 9); assay type: cell-based
Protocol: as §4, §5, §6

[8] = tested on: blood of patients with AML; test: Hemogram of blood of patients with AML after exposure (Example 13, Table 10; also OMML); assay type: cell-based
Protocol: as §4, §5, §6

[9] = tested on: blood of patients with AML; test: Hemogram of blood of patients with AML after exposure (Example 14, Table 11); assay type: cell-based
Text: as §3, §4, §5, §6

[10] = AML (Table 9), 10 µg/ml, 3 hours, 37.0°C
[11] = AML (Example 13), compared with doxorubicin
[12] = AML (Table 10), 10 µg/ml, 3 hours, 37.0°C
[13] = AML (Example 14), compared to cytosar
[14] = AML (Table 11), 10 µg/ml, 3 hours, 37.0°C

COc1cc2c(cc1OC)C(c1cc3c(cc1Br)OCO3)NCC2 (centres unmarked) [Compound F1, 1-(2'-bromo-4',5'-methylenedioxyphenyl)-6,7-dimethoxy-1,2,3,4-tetrahydroisoquinoline]
IC50 [1]: 36.6 µM | IC50 (fibroblasts): > 100 µM | IC50 (Rat liver hepatocytes): > 100 µM | LD50 at 168 h [2]: 240 ± 13.8 mg/kg | toxicity class (outbred white mice; classified from LD50): toxicity class 3 (moderately toxic) | LD50 dose (outbred white mice; intraperitoneal, mice, observed for a week, 10080 min): 240,0±13,8 mg/kg | LD50 value, times higher than cytosar (cytarabine) (outbred white mice; relative to cytosar): 57 times | LD50 value, times higher than doxorubicin (outbred white mice; relative to doxorubicin): 22 times | Band (s/n) neutrophils ([3]; 10 µg/ml, 3 hours, 37.0°C): 2,5±0,3 % | Blasts ([3]; 10 µg/ml, 3 hours, 37.0°C): 65,7±2,3 % | Destroyed cells ([3]; 10 µg/ml, 3 hours, 37.0°C): 14,8±1,8*^ # % | Eosinophils ([3]; 10 µg/ml, 3 hours, 37.0°C): 4,0±0,6 % | Lymphocytes ([3]; 10 µg/ml, 3 hours, 37.0°C): 12,0±0,9% | Monocytes ([3]; 10 µg/ml, 3 hours, 37.0°C): 4,9±0,6 % | Myelocytes ([3]; 10 µg/ml, 3 hours, 37.0°C): 4,0±0,5 % | Promyelocytes ([3]; 10 µg/ml, 3 hours, 37.0°C): 5,0±0,6^ % | Segmented (s/i) neutrophils ([3]; 10 µg/ml, 3 hours, 37.0°C): 7,0±0,8% | decrease in the content of blasts ([3]; versus Control group): 10.7% | increase in the percentage of neutrophils ([3]; versus control): 1.8 times | increase in the proportion of destroyed cells ([3]; versus control): 9.3% | increase in the proportion of eosinophils ([3]; versus control): 2.7 times | Band (s/n) neutrophils ([4]; 10 µg/ml, 3 hours, 37.0°C): 0.0±0.0% | Blasts ([4]; 10 µg/ml, 3 hours, 37.0°C): 68,9±1,7 % | Destroyed cells ([4]; 10 µg/ml, 3 hours, 37.0°C): 16,9±1,1*^ # % | Eosinophils ([4]; 10 µg/ml, 3 hours, 37.0°C): 0,0±0,6% | Lymphocytes ([4]; 10 µg/ml, 3 hours, 37.0°C): 9,1±1,0% | Monocytes ([4]; 10 µg/ml, 3 hours, 37.0°C): 1,3±0,3 % | Myelocytes ([4]; 10 µg/ml, 3 hours, 37.0°C): 0,0±0,0% | Promyelocytes ([4]; 10 µg/ml, 3 hours, 37.0°C): 0,0±0,0% | Segmented (s/i) neutrophils ([4]; 10 µg/ml, 3 hours, 37.0°C): 3.9±0,4 % | decrease in p/i neutrophils ([4]; comparator not stated): 1.7 times | increase in the proportion of destroyed cells ([4]; compared with cytosar): 1.9 times | increase in the proportion of destroyed cells ([4]; compared with doxorubicin): 1.3 times | decrease in the content of blasts [5]: 1.16 times | increase in the proportion of destroyed cells [5]: 4.1 times | Band (s/n) neutrophils ([5]; 10 µg/ml, 3 hours, 37.0°C): 1,4±0,4% | Blasts ([5]; 10 µg/ml, 3 hours, 37.0°C): 59,0±2,9 % | Destroyed cells ([5]; 10 µg/ml, 3 hours, 37.0°C): 12,6±2,0 % | Eosinophils ([5]; 10 µg/ml, 3 hours, 37.0°C): 0,2±0,1% | Lymphocytes ([5]; 10 µg/ml, 3 hours, 37.0°C): 13,5±1,7 % | Monocytes ([5]; 10 µg/ml, 3 hours, 37.0°C): 3,5±0,8 % | Myelocytes ([5]; 10 µg/ml, 3 hours, 37.0°C): 0,5±0,2% | Promyelocytes ([5]; 10 µg/ml, 3 hours, 37.0°C): 0,0±0,0% | Segmented (s/i) neutrophils ([5]; 10 µg/ml, 3 hours, 37.0°C): 9,4±0,9 % | Band (s/n) neutrophils ([6]; 10 µg/ml, 3 hours, 37.0°C): 0,3±0,1% | Blasts ([6]; 10 µg/ml, 3 hours, 37.0°C): 68,4±2,7*^ % | Destroyed cells ([6]; 10 µg/ml, 3 hours, 37.0°C): 12,9±1,7*^ % | Eosinophils ([6]; 10 µg/ml, 3 hours, 37.0°C): 0,0±0,0% | Lymphocytes ([6]; 10 µg/ml, 3 hours, 37.0°C): 12,6±1,1 % | Monocytes ([6]; 10 µg/ml, 3 hours, 37.0°C): 1,8±0,4% | Myelocytes ([6]; 10 µg/ml, 3 hours, 37.0°C): 0,0±0,0% | Promyelocytes ([6]; 10 µg/ml, 3 hours, 37.0°C): 0,0±0,0% | Segmented (s/i) neutrophils ([6]; 10 µg/ml, 3 hours, 37.0°C): 4,2±1,0 % | percentage of destroyed cells higher ([6]; compared to cytosar): 2.7 times | difference in the level of blast cells ([6]; compared with cytosar): 1.15 times | decrease in the percentage of blasts ([7]; AML (Example 12)): 1.2 times | increase in the level of destroyed cells ([7]; AML (Example 12)): 4.5 times | increase in the proportion of mature differentiated neutrophils ([7]; AML (Example 12)): 2.6 times | increase in the percentage of destroyed cells ([7]; AML (Example 12), compared with cytosar): 2.0 times | decrease in the percentage of destroyed cells ([7]; AML (Example 12), compared with doxorubicin): 2.3 times | Band (s/n) neutrophils [7, 10]: 1,2±0,3% | Blasts [7, 10]: 63,6±2,3 % | Destroyed cells [7, 10]: 12,7±1,2*^ # % | Eosinophils [7, 10]: 0,4±0,2% | Lymphocytes [7, 10]: 10,7±1,1% | Monocytes [7, 10]: 3,0±0,7% | Myelocytes [7, 10]: 1,2±0,6% | Promyelocytes [7, 10]: 0,3±0,2% | Segmented (s/i) neutrophils [7, 10]: 7,0±0,7 % | decrease in the percentage of myelocytes ([8]; AML (Example 13)): 2.5 times | decrease in the proportion of blasts ([8]; AML (Example 13)): 1.6% | increase in the proportion of destroyed cells ([8]; AML (Example 13)): 5.3 times | increase in the proportion of neutrophils ([8]; AML (Example 13)): 2.0 times | proportion of destroyed cells higher ([8]; AML (Example 13), compared with Cytosar): 2.4 times | myelocytes lower [8, 11]: 1.5 times | proportion of destroyed cells higher [8, 11]: 1.2 times | percentage of myelocytes lower ([8]; AML (Example 13), relative to cytosar): 6.15 times | Band (s/n) neutrophils [8, 12]: 2,8±0,3% | Blasts [8, 12]: 51,1±2,2% | Destroyed cells [8, 12]: 18,7±1,3*^ # % | Eosinophils [8, 12]: 0,8±0,3% | Lymphocytes [8, 12]: 6,2±0,6% | Monocytes [8, 12]: 1,4±0,2 % | Myelocytes [8, 12]: 2,6±0,5 % | Promyelocytes [8, 12]: 0,0±0,0% | Segmented (s/i) neutrophils [8, 12]: 16,6±1,3 % | percentage of blasts lower [9, 13]: 4.1% | percentage of monocytes lower [9, 13]: 2.4 times | percentage of destroyed cells higher ([9]; AML (Example 14), than after Cytosar): 1.8 times | Band (s/n) neutrophils [9, 14]: 1,6±0,5% | Blasts [9, 14]: 55,4±3,1 % | Destroyed cells [9, 14]: 22,6±2,3*^ % | Eosinophils [9, 14]: 0,0±0,0% | Lymphocytes [9, 14]: 10,1±1,0% | Monocytes [9, 14]: 2.0±0,6^ % | Myelocytes [9, 14]: 0,9±0,3% | Promyelocytes [9, 14]: 0,0±0,0% | Segmented (s/i) neutrophils [9, 14]: 9,6±1,7%

Reference: patent EP4506003A1, “HALOGEN DERIVATIVES OF (4´,5´- METHYLENEDIOXYPHENYL)-6,7-DIMETHOXY-1,2,3,4-TETRAHYDROISOQUINOLINE FOR USE IN THE TREATMENT OF LEUKEMIA” (S.Yu Yunusov Institute of Chemistry of Plant Substances of …, priority 2023, dated 2025)
